Experimental data from patent US9687477B2 (priority 2011, dated 2017).

Key:
[1] = system: Influenza A/WSN/33 virus (H1N1); assay: microbe, parasite or virus in culture; assay type: cell-based
[2] = system: influenza virus

SMILES	production of infectious influenza virus particles (virus titer, plaque assay) [1]	influenza viral protein expression [2]	influenza viral protein expression (NP, NS1, NS2, M1, M2) [2]
Oc1ccc(Nc2nc(-c3ccc(Cl)cc3)cs2)cc1 [SKI-II, 4-[4-(4-Chloro-phenyl)-thiazol-2-ylamino]-phenol]	suppressed the production of infectious influenza virus particles	inhibition was also observed	inhibited influenza viral protein expression
CCCCCCCCCCCCC/C=C/[C@@H](O)[C@H](CO)N(C)C [DMS, D-erythro-N,N-dimethylsphingosine]	suppressed the production of infectious influenza virus particles	inhibition was also observed	inhibited influenza viral protein expression
